Source: patent US5981558A, “DC107 derivatives” (Kyowa Hakko Kogyo Co., Ltd., priority 1996, dated 1999)
Like-named read-outs stand apart in the source and are kept apart here.

How the values were obtained:
[1] = tested on: Sarcoma 180 mouse solid tumor; assay: Antitumor activity against Sarcoma 180 mouse solid tumor; assay type: in vivo, mouse (ddY); details: Sarcoma-180, iv, 168 h
Experimental: To a ddY mouse were intraperitoneally transplanted 5×10^6 sarcoma 180 cells. On the seventh day from the transplant, the cells were collected from the ascites, washed once with sterilized physiological saline, and then diluted with sterilized physiological saline to prepare a cell suspension having a concentration of 5×10^7 cells/mL. This suspension was transplanted in an amount of 0.01 mL to a subcutaneous part of the right axilla of each of male ddY mice each weighing 20±1 g.
A test compound was dissolved in physiological saline containing polyoxyethylene sorbitan monolaurate. At 24 hours after the tumor transplant, 0.2 mL of the solution was intravenously administered to the tail of each of a group of five mice.

HeLa S3 cells = assay: HeLa S3 Cell Growth Inhibition Test; assay type: cell-based; details: Homo sapiens, HeLa S3, 72 h
Experimental: In each well of a 96-well microtiter plate was placed 0.1 mL of HeLa S3 cells having a concentration of 8×10^3 cells/mL and prepared in an MEM culture medium containing 10% fetal bovine serum and 2 mM glutamine. After the cells were incubated overnight at 37° C. in a carbon dioxide incubator, a test compound suitably diluted with a medium was added to the wells in an amount of 0.05 mL for each well. The cells were incubated at 37° C. for 72 hours in a carbon dioxide incubator. After the culture supernatant was removed, 0.1 mL of a culture medium containing 0.02% Neutral Red was added to each well. The cells were then incubated at 37° C. for 1 hour in a carbon dioxide incubator to dye the cells. After the culture supernatant was removed, each residue was rinsed once with physiological saline and the pigment was extracted with 0.001 N hydrochloric acid/30% ethanol. The absorbance at 550 nm of each extract was measured with a microplate reader. The drug concentration required for the 50% inhibition of cell growth, which is referred to as IC50, was calculated by comparing the absorbance for untreated cells with those for cells treated with the drug in known concentrations.

[2] = read-out: T/C (tumor volume ratio treated/control)
[3] = HeLa S3, 72 hours incubation, Neutral Red, read-out: IC50, HeLa S3 cell growth inhibition
[4] = 16 mg/kg i.v. once, 24 hours after transplant, tumor volume on day 7, read-out: T/C (tumor volume ratio treated/control)
[5] = read-out: IC50, HeLa S3 cell growth inhibition, HeLa S3, 72 hours incubation, Neutral Red
[6] = 8.0 mg/kg i.v. once, 24 hours after transplant, tumor volume on day 7, read-out: T/C (tumor volume ratio treated/control)
[7] = 4.0 mg/kg i.v. once, 24 hours after transplant, tumor volume on day 7, read-out: T/C (tumor volume ratio treated/control)

C/C1=C\C(OC2CCCCO2)C(=O)/C=C/C=C\c2csc(n2)C(C)N2C(=O)CC(C(C)(O)C(=O)SCc3oc(=O)oc3COC(=O)CN(C)C)(CC1)[S+]2[O-] (centres unmarked) [Compound 159]
response vs control in vivo at 32 mg/kg [1, 2]: 33%

COCCOCCOCC(=O)OCc1oc(=O)oc1CSC(=O)C(C)(O)C12CC/C(C)=C/C(OC3CCCCO3)C(=O)/C=C/C=C\c3csc(n3)C(C)N(C(=O)C1)[S+]2[O-] (centres unmarked) [Compound 102]
IC50 (HeLa S3 cells; [3]): 38 nM
response vs control in vivo at 16 mg/kg [1, 4]: 46%

CC1=CC(OC2CCCCO2)C(=O)C=CC=Cc2csc(n2)C(C)N2C(=O)CC(C(C)(O)C(=O)SCOC(=O)c3ccccc3)(CC1)[S+]2[O-] (centres unmarked) [Compound 7]
IC50 (HeLa S3 cells; [5]): 50 nM
response vs control in vivo at 4 mg/kg [1, 2]: 23%

CC1=CC(OC2CCCCO2)C(=O)C=CC=Cc2csc(n2)C(C)N2C(=O)CC(C(C)(O)C(=O)SCOC(=O)C3CCC(C(=O)O)CC3)(CC1)[S+]2[O-] (centres unmarked) [Compound 12]
IC50 (HeLa S3 cells; [3]): 870 nM
response vs control in vivo at 8 mg/kg [1, 6]: 47%

C/C1=C\C(OC2CCCCO2)C(=O)/C=C/C=C\c2csc(n2)C(C)N2C(=O)CC(C(C)(O)C(=O)SCc3oc(=O)oc3CO)(CC1)[S+]2[O-] (centres unmarked) [Compound 87]
IC50 (HeLa S3 cells; [5]): 33 nM
response vs control in vivo at 16 mg/kg [1, 2]: 40%

C/C1=C\C(O)C(=O)/C=C/C=C\c2csc(n2)C(C)N2C(=O)CC(C(C)(O)C(=O)SCOC(=O)OCCN3CCCC3=O)(CC1)[S+]2[O-] (centres unmarked) [Compound 146]
response vs control in vivo at 4 mg/kg [1, 2]: 38%

CC1=CC(OC2CCCCO2)C(=O)C=CC=Cc2csc(n2)C(C)N2C(=O)CC(C(C)(O)C(=O)SCOC(=O)CO)(CC1)[S+]2[O-] (centres unmarked) [Compound 15]
IC50 (HeLa S3 cells; [5]): 14 nM
response vs control in vivo at 1 mg/kg [1, 2]: 45%

CC1=CC(O)C(=O)C=CC=Cc2csc(n2)C(C)N2C(=O)CC(C(C)(O)C(=O)SCOC(=O)CC[C@H](NC(=O)OC(C)(C)C)C(=O)OC(C)(C)C)(CC1)[S+]2[O-] (some centres unmarked) [Compound 22]
IC50 (HeLa S3 cells; [3]): 7.4 nM
response vs control in vivo at 4 mg/kg [1, 7]: 42%

CC1=CC(OC2CCCCO2)C(=O)C=CC=Cc2csc(n2)C(C)N2C(=O)CC(C(C)(O)C(=O)SCOC(=O)C(C)(C)NC(=O)OCc3ccccc3)(CC1)[S+]2[O-] (single isomer, unassigned) [Compound 4]
IC50 (HeLa S3 cells; [3]): 39 nM
response vs control in vivo at 8 mg/kg [1, 6]: 30%

COC1(OC2/C=C(\C)CCC3(C(C)(O)C(=O)SCC4=C(C)OC(C)(C)OC4=O)CC(=O)N(C(C)c4nc(cs4)/C=C\C=C\C2=O)[S+]3[O-])CCOCC1 (centres unmarked) [Compound 122]
IC50 (HeLa S3 cells; [3]): 1800 nM
response vs control in vivo at 16 mg/kg [1, 4]: 37%

C/C1=C\C(O)C(=O)/C=C/C=C\c2csc(n2)C(C)N2C(=O)CC(C(C)(O)C(=O)SCOC(=O)CCCNC(=O)[C@@]34O[C@@H](CO)[C@@H](O)[C@@H]3OC(C)(C)O4)(CC1)[S+]2[O-] (some centres unmarked) [Compound 141]
response vs control in vivo at 4 mg/kg [1, 2]: 31%

CC1=C(CSC(=O)C(C)(O)C23CC/C(C)=C/C(OC4CCCCO4)C(=O)/C=C/C=C\c4csc(n4)C(C)N(C(=O)C2)[S+]3[O-])C(=O)OC(C)(C)O1 (centres unmarked) [Compound 123]
IC50 (HeLa S3 cells; [3]): 600 nM
response vs control in vivo at 16 mg/kg [1, 4]: 14%

COC(=O)[C@H](CCC(=O)OCSC(=O)C(C)(O)C12CCC(C)=CC(O)C(=O)C=CC=Cc3csc(n3)C(C)N(C(=O)C1)[S+]2[O-])NC(=O)[C@H]1O[C@@H]2OC(C)(C)O[C@@H]2[C@H]2OC(C)(C)O[C@H]21 (some centres unmarked) [Compound 25]
IC50 (HeLa S3 cells; [3]): 800 nM
response vs control in vivo at 16 mg/kg [1, 4]: 30%

CC1=C(CSC(=O)C(C)(O)C23CC/C(C)=C/C(OC4CCCCO4)C(=O)/C=C/C=C\c4csc(n4)C(C)N(C(=O)C2)[S+]3[O-])C(=O)OC2(CCOCC2)O1 (centres unmarked) [Compound 125]
IC50 (HeLa S3 cells; [3]): 47 nM
response vs control in vivo at 16 mg/kg [1, 4]: 43%

C/C1=C\C(OC2CCCCO2)C(=O)/C=C/C=C\c2csc(n2)C(C)N2C(=O)CC(C(C)(O)C(=O)SCOC(=O)CCNC(=O)[C@H]3O[C@@H]4OC(C)(C)O[C@@H]4[C@H]4OC(C)(C)O[C@H]43)(CC1)[S+]2[O-] (some centres unmarked) [Compound 45]
IC50 (HeLa S3 cells; [5]): 44 nM
response vs control in vivo at 8 mg/kg [1, 2]: 45%

C/C1=C\C(O)C(=O)/C=C/C=C\c2csc(n2)C(C)N2C(=O)CC(C(C)(O)C(=O)SCc3oc(=O)oc3CO[C@@H]3C[C@H](O)[C@@H](O)[C@H](C)O3)(CC1)[S+]2[O-] (some centres unmarked) [Compound 154]
response vs control in vivo at 4 mg/kg [1, 2]: 40%

C/C1=C\C(O)C(=O)/C=C/C=C\c2csc(n2)C(C)N2C(=O)CC(C(C)(O)C(=O)SCc3oc(=O)oc3CO[C@@H]3C[C@@H](O)[C@H](O)[C@@H](CO)O3)(CC1)[S+]2[O-] (some centres unmarked) [Compound 152]
response vs control in vivo at 16 mg/kg [1, 2]: 17%

CC1=CC(O)C(=O)C=CC=Cc2csc(n2)C(C)N2C(=O)CC(C(C)(O)C(=O)SCOC(=O)C(C)(C)NC(=O)OCc3ccccc3)(CC1)[S+]2[O-] (centres unmarked) [Compound 3]
IC50 (HeLa S3 cells; [3]): 130 nM
response vs control in vivo at 16 mg/kg [1, 4]: 21%

COCCOCCOCCOC(=O)OCSC(=O)C(C)(O)C12CC/C(C)=C/C(O)C(=O)/C=C/C=C\c3csc(n3)C(C)N(C(=O)C1)[S+]2[O-] (centres unmarked) [Compound 149]
response vs control in vivo at 8 mg/kg [1, 2]: 42%

CC(=O)Oc1cccc(C(=O)OCSC(=O)C(C)(O)C23CC/C(C)=C/C(OC4CCCCO4)C(=O)/C=C/C=C\c4csc(n4)C(C)N(C(=O)C2)[S+]3[O-])c1 (centres unmarked) [Compound 54]
IC50 (HeLa S3 cells; [3]): 15 nM
response vs control in vivo at 4 mg/kg [1, 7]: 47%

C/C1=C\C(O)C(=O)/C=C/C=C\c2csc(n2)C(C)N2C(=O)CC(C(C)(O)C(=O)SCOC(=O)CCCNC(=O)C3(C)COC(C)(C)OC3)(CC1)[S+]2[O-] (centres unmarked) [Compound 138]
response vs control in vivo at 4 mg/kg [1, 2]: 34%

CC(=O)NC(Cc1ccc(OC(C)=O)cc1)C(=O)OCSC(=O)C(C)(O)C12CCC(C)=CC(O)C(=O)C=CC=Cc3csc(n3)C(C)N(C(=O)C1)[S+]2[O-] (centres unmarked) [Compound 29]
IC50 (HeLa S3 cells; [3]): 400 nM
response vs control in vivo at 4 mg/kg [1, 7]: 47%

COC(=O)[C@H](CCC(=O)OCSC(=O)C(C)(O)C12CCC(C)=CC(O)C(=O)C=CC=Cc3csc(n3)C(C)N(C(=O)C1)[S+]2[O-])NC(=O)C1(C)COC(C)(C)OC1 (some centres unmarked) [Compound 27]
response vs control in vivo at 2 mg/kg [1, 2]: 46%

COCCOCCOCCOCCOCCOCC(=O)OCSC(=O)C(C)(O)C12CC/C(C)=C/C(O)C(=O)/C=C/C=C\c3csc(n3)C(C)N(C(=O)C1)[S+]2[O-] (centres unmarked) [Compound 37]
response vs control in vivo at 8 mg/kg [1, 2]: 36%

C=C(CSC(=O)C(C)(O)C12CC/C(C)=C/C(OC3(OC)CCOCC3)C(=O)/C=C/C=C\c3csc(n3)C(C)N(C(=O)C1)[S+]2[O-])C(=O)OC (centres unmarked) [Compound 113]
IC50 (HeLa S3 cells; [3]): 42 nM

COCCOCCOCCOCC(=O)OCSC(=O)C(C)(O)C12CC/C(C)=C/C(O)C(=O)/C=C/C=C\c3csc(n3)C(C)N(C(=O)C1)[S+]2[O-] (centres unmarked) [Compound 147]
response vs control in vivo at 2 mg/kg [1, 2]: 43%

COC(=O)[C@H](CCC(=O)OCSC(=O)C(C)(O)C12CC/C(C)=C/C(OC3CCCCO3)C(=O)/C=C/C=C\c3csc(n3)C(C)N(C(=O)C1)[S+]2[O-])NC(=O)[C@@]12O[C@H]3COC(C)(C)O[C@H]3[C@@H]1OC(C)(C)O2 (some centres unmarked) [Compound 49]
IC50 (HeLa S3 cells; [5]): 30 nM

CC(=O)OCc1oc(=O)oc1CSC(=O)C(C)(O)C12CC/C(C)=C/C(O)C(=O)/C=C/C=C\c3csc(n3)C(C)N(C(=O)C1)[S+]2[O-] (centres unmarked) [Compound 90]
IC50 (HeLa S3 cells; [3]): 130 nM

COCCOCCOCC(=O)OCc1oc(=O)oc1CSC(=O)C(C)(O)C12CC/C(C)=C/C(OC3(OC)CCOCC3)C(=O)/C=C/C=C\c3csc(n3)C(C)N(C(=O)C1)[S+]2[O-] (centres unmarked) [Compound 103]
IC50 (HeLa S3 cells; [3]): 26 nM

CCCCNC(=O)OCc1oc(=O)oc1CSC(=O)C(C)(O)C12CC/C(C)=C/C(OC3CCCCO3)C(=O)/C=C/C=C\c3csc(n3)C(C)N(C(=O)C1)[S+]2[O-] (centres unmarked) [Compound 108]
IC50 (HeLa S3 cells; [5]): 13 nM

C/C1=C\C(OC2CCCCO2)C(=O)/C=C/C=C\c2csc(n2)C(C)N2C(=O)CC(C(C)(O)C(=O)SCOC(=O)CNC(=O)OC(C)(C)C)(CC1)[S+]2[O-] (centres unmarked) [Compound 38]
IC50 (HeLa S3 cells; [5]): 3.8 nM

COCCOCCOCC(=O)OCOC1/C=C(\C)CCC2(C(C)(O)C(=O)SCOC(=O)COCCOCCOC)CC(=O)N(C(C)c3nc(cs3)/C=C\C=C\C1=O)[S+]2[O-] (centres unmarked) [Compound 36]
IC50 (HeLa S3 cells; [5]): 20 nM

C/C1=C\C(O)C(=O)/C=C/C=C\c2csc(n2)C(C)N2C(=O)CC(C(C)(O)C(=O)SCc3oc(=O)oc3CO[C@H]3C[C@H](O)[C@@H](O)[C@H](C)O3)(CC1)[S+]2[O-] (some centres unmarked) [Compound 155]
response vs control in vivo at 8 mg/kg [1, 2]: 37%

COC(=O)[C@H](CCC(=O)OCSC(=O)C(C)(O)C12CCC(C)=CC(O)C(=O)C=CC=Cc3csc(n3)C(C)N(C(=O)C1)[S+]2[O-])NC(=O)c1ccc(OC(C)=O)cc1 (some centres unmarked) [Compound 26]
IC50 (HeLa S3 cells; [3]): 68 nM

CC1=CC(O)C(=O)C=CC=Cc2csc(n2)C(C)N2C(=O)CC(C(C)(O)C(=O)SCOC(=O)c3ccc(C(=O)O)cc3)(CC1)[S+]2[O-] (centres unmarked) [Compound 9]
IC50 (HeLa S3 cells; footnote *: Value after 72 hours of drug treatment, read-out: IC50, HeLa S3 cell growth inhibition): 150 nM
